Data reported in patent publication US20210094933A1, “RAPAFUCIN DERIVATIVE COMPOUNDS AND METHODS OF USE THEREOF” (The Johns Hopkins University, priority 2019, published 2021).
pIC50: −log10 of the molar value. Converted amounts (≈) assume the structure as drawn. Read-outs that look alike come from different tables or passages of the source.

Key:
Sprague Dawley Rats = experiment: Rat Renal Ischemia-Reperfusion model; assay type: in vivo; conditions: compound given 30 min prior to right nephrectomy and left renal clamping, 24 hours of reperfusion
Protocol: Briefly, Sprague Dawley Rats were treated test compound 30 min prior to a right nephrectomy and with underwent clamping of the left renal clamping for 15 mins. After 24 hours of reperfusion, blood was collected to measure biomarkers for kidney damage and the kidney was removed for histology. […] SHAM indicates an animal group with right nephrectomy without ischemic injury. VE indicates vehicle. DPA indicates dipyridamole administered in a dosage of 10 mg/kg. Compound 1593 was administered at a high dosage (12 mg/kg) or a low dosage (4 mg/kg). Compound 1594 was administered at 4 mg/kg.

293T = experiment: Nucleoside uptake assay (3H-Thymidine), IC50 relative to DMSO control; assay type: cell-based; conditions: 293T cells; Table 17
Protocol: Nucleoside Uptake Assay (uptake). Nuceloside uptake assays were performed with using 3H-Thymidine as described in Guo et al. (2018) Nat. Chem, 11:254-63. Specific cell lines are indicated in each assay and cultured in complete growth media. Activity is scored according to the IC50 values relative to DMSO control. “Low” indicates an IC50 greater than 600 nM, “Medium” indicates an IC50 between 300 nM and 600 nM “High” indicates an IC50 less than 300 nM. “Rel.Uptake” refers to uptake activity characterization relative to a single concentration assay. “Low” indicates a response greater than 0.6 times the activity relative to DMSO, “Medium” indicates a response between 0.6 and 0.3 times the activity relative to DMSO, “High” indicates a response less than 0.3 times the activity relative to DMSO.

[1] = Aqueous solubility in PBS solution; assay type: physicochemical; conditions: aqueous buffer
Protocol: Compound 1593 is synthesized according to Scheme 42. The aqueous solubility of compound 1593 and its counterpart structure without carboxylic acid substitutent, compound 1594, is shown in Table 18. Without the carboxylic acid substitutent, compound 1594 merely has a solubility of about 0.1 mg/mL in PBS solution.

[2] = Nucleoside uptake assay, single concentration (Rel.Uptake), response relative to DMSO; cell line indicated in each table; assay type: cell-based; conditions: 293 T cells, nucleoside uptake at single concentration

Q: Which “efficacy in Rat Renal Ischemia-Reperfusion model” value (Sprague Dawley Rats) does the source give for COc1ccc(CC[C@H]2OC(=O)[C@@H]3CCCCN3C(=O)C(=O)C(C)(C)COC(=O)/C=C/CCN(C)C(=O)[C@H](CC(C)C)N(C)C(=O)[C@H]3CCCN3C(=O)[C@H](Cc3ccc(OCC(=O)O)cc3)NC(=O)[C@H](c3ccccc3)NC(=O)CCC(=O)Nc3cccc2c3)cc1OC [Compound 1593] here?
A: efficacious

Q: And the pIC50 (293T)?
A: > 6.52

Q: And the solubility ([1]; PBS, read-out: Solubility)?
A: 3500 µg/mL (≈ 2700 µM)

Q: And the solubility ([1]; read-out: solubility in PBS solution)?
A: ~3500 µg/mL (≈ 2700 µM)

Q: And the “Rel. Uptake, 293 T” value [2]?
A: High (“High” indicates a response less than 0.3 times the activity relative to DMSO)
